According to patent publication US20040047880A1, “Component for vaccine” (priority 2000, published 2004):
No end group written: not given here.

Each sequence was assayed on mAbs H44/24, H44/58, H44/70, H44/78, 4BE12C10 (assay: ELISA test for the peptide-on-phage mAb interaction). Details: peptide-on-phage coated at 5×10^11 particules/ml; positives tested a second time.
Type: binding, mouse
Description: To assess the binding of the mAbs to the numerous peptides-on-phage, all clones have been produced independently using the following protocol.
A preculture of E. coli DH11S infected with the phage was grown overnight. A sample of this preculture was used to inoculate a new 50 ml culture with a starting OD600nm of 0.050. This culture was grown up to an OD600nm of 0.20 to 0.25 with vigorous shaking at 37° C. The culture was then slowed down for 15 minutes in order to allow the regeneration of pili. M13K07 helper phage was added at an MOI of 20, and superinfection was allowed for 15 more minutes at 37° C. with slow agitation. IPTG (1 mM final concentration) was then added and the culture was grown for 5 hours with vigorous agitation.
A colony of K91kan containing the clone of interest (on a LB Tet plate) was added to 50 ml of LB supplemented with 20 μg/ml tetracycline and grown overnight at 37° C. with strong agitation.
Culture was centrifuged for 15 minutes at 4000RPM; 0.15 volume of PEG-NaCl solution was added to the supernatant for precipitating the phage and kept overnight at 4° C. Phage were collected by centrifugation, 45 minutes at 4000RPM. After being resuspended in TBS, phage were heated 15 minutes at 65° C. to kill remaining bacteria and to denature soluble proteins present in the sample. The solution was then centrifuged and the pellet was discarded. Phage in the supernatant were then precipitated again as indicated above. Phage were finally resuspended in 200 μl of TBS. Concentration of phage particules was determined by measuring the ΔOD at 269 nm-320 nm.
(§1) Phages were coated at 5×10^11 particules/ml on MaxiSorp multiwell plates. Coating was performed overnight at 4° C. with 100 μl/well. Plates were saturated with 5% (v/v) skimmed milk in TBS for 2 hours at 37° C. and washed 5 times with TBS-Tween20 0.05% (v/v). The mAbs were then incubated in the coated wells for 1 hour at 37° C., washed 5 times, and GAM-HRP conjugate (1500-fold dilution, Dako, Denmark) was added for 1 hour at 37° C. to detect the binding of the mAb to the phages. After 5 washings, the peroxidase activity was monitored by addition of the K-Blue® substrate (Neogen, Lexington, USA) at room temperature for 20 minutes. Reaction was stopped by addition of 25 μl of 2N H2SO4. Reading was performed at 450-630 nm. Each phage was coated in triplicate for testing with each mAb.
“HGRTLWYTP (LOS peptide mimotope sequence) [Peptide 55]” was tested, and the “Phage ELISA: positive with at least one mAb” value (“Phage ELISA: positive” for short) was “positive”.
With “CHSVQPATRAC (LOS peptide mimotope sequence) [Peptide 131]” the “Phage ELISA: positive” value was “positive”.
In the case of “NSPTSCKWLCNEKF (LOS peptide mimotope sequence) [Peptide 148]”, the “Phage ELISA: positive” value is reported as “positive”.
In the case of “AITGVRARW (LOS peptide mimotope sequence) [Peptide 143]”, the “Phage ELISA: positive” value is reported as “positive”.
For PRPHFGAPP [Peptide 61], the “Phage ELISA: positive” value was “positive”.
In the case of CSHAPPYDRVC [Peptide 14], the “Phage ELISA: positive” value is reported as “positive”.
For “CRPAFDPPYHC (LOS peptide mimotope sequence) [Peptide 54]”, the “Phage ELISA: positive” value was “positive”.
“EKKRFESNT (LOS peptide mimotope sequence) [Peptide 145]” was tested, and the “Phage ELISA: positive” value was “positive”.
“PLWYDPAPP (LOS peptide mimotope sequence) [Peptide 47]” was tested, and the “Phage ELISA: positive” value was “positive”.
“CTHYSFYGDIC (LOS peptide mimotope sequence) [Peptide 66]” was tested, and the “Phage ELISA: positive” value was “positive”.
“EKKHFNYGT (LOS peptide mimotope sequence) [Peptide 144]” was tested, and the “Phage ELISA: positive” value was “positive”.
“CPYTSWAREGC (LOS peptide mimotope sequence) [Peptide 140]” was tested, and the “Phage ELISA: positive” value was “positive”.
With AERSLWYYP [Peptide 83] the “Phage ELISA: positive” value was “positive”.
“SNWYENTPT (LOS peptide mimotope sequence) [Peptide 58]” was tested, and the “Phage ELISA: positive” value was “positive”.
In the case of “CYPQLSHANPC (LOS peptide mimotope sequence) [Peptide 105]”, the “Phage ELISA: positive” value is reported as “positive”.
“CAPPGIAVRTC (not fully specified (bridges); cysteine pairing not given here) [Peptide 115]” was tested, and the “Phage ELISA: positive” value was “positive”.
In the case of “DSAPAVKSS (LOS peptide mimotope sequence) [Peptide 85]”, the “Phage ELISA: positive” value is reported as “positive”.
With “CFGLIAFHPDC (LOS peptide mimotope sequence) [Peptide 27]” the “Phage ELISA: positive” value was “positive”.
“CLWRPIDPFLC (LOS peptide mimotope sequence) [Peptide 82]” was tested, and the “Phage ELISA: positive” value was “positive”.
With “CPKAPFSPFKC (LOS peptide mimotope sequence) [Peptide 132]” the “Phage ELISA: positive” value was “positive”.
“CLAASADTAAC (LOS peptide mimotope sequence) [Peptide 139]” was tested, and the “Phage ELISA: positive” value was “positive”.
In the case of “CISEYAKGTTC (LOS peptide mimotope sequence) [Peptide 13]”, the “Phage ELISA: positive” value is reported as “positive”.
With “CANSRPGGYLC (LOS peptide mimotope sequence) [Peptide 30]” the “Phage ELISA: positive” value was “positive”.
In the case of CSSYSYVHDSC [Peptide 50], the “Phage ELISA: positive” value is reported as “positive”.
“WYSAPENAL (LOS peptide mimotope sequence) [Peptide 88]” was tested, and the “Phage ELISA: positive” value was “positive”.
For “CTPLPDGGILC (LOS peptide mimotope sequence) [Peptide 103]”, the “Phage ELISA: positive” value was “positive”.
For “CSSLYYHGTAC (LOS peptide mimotope sequence) [Peptide 39]”, the “Phage ELISA: positive” value was “positive”.
For “CAPYSIFIGEC (not fully specified (bridges); cysteine pairing not given here) [Peptide 17]”, the “Phage ELISA: positive” value was “positive”.
For “CIDAGSHGWLC (LOS peptide mimotope sequence) [Peptide 133]”, the “Phage ELISA: positive” value was “positive”.
For “CFARPFQGTWC (LOS peptide mimotope sequence) [Peptide 22]”, the “Phage ELISA: positive” value was “positive”.
“GPWHGPSSS (LOS peptide mimotope sequence) [Peptide 93]” was tested, and the “Phage ELISA: positive” value was “positive”.
For “CRGLQGHIAYC (LOS peptide mimotope sequence) [Peptide 87]”, the “Phage ELISA: positive” value was “positive”.
In the case of “EQGYCTVNIEQCAKYR (LOS peptide mimotope sequence) [Peptide 146]”, the “Phage ELISA: positive” value is reported as “positive”.
For “RGSEGSFAR (LOS peptide mimotope sequence) [Peptide 45]”, the “Phage ELISA: positive” value was “positive”.
For “ARWYPISQT (LOS peptide mimotope sequence) [Peptide 124]”, the “Phage ELISA: positive” value was “positive”.
“CQPIGPPYDRC (LOS peptide mimotope sequence) [Peptide 28]” was tested, and the “Phage ELISA: positive” value was “positive”.
“WYTTPTRPV (LOS peptide mimotope sequence) [Peptide 75]” was tested, and the “Phage ELISA: positive” value was “positive”.
With “LKWGDGSSA (LOS peptide mimotope sequence) [Peptide 104]” the “Phage ELISA: positive” value was “positive”.
“WYIAPRKTL (LOS peptide mimotope sequence) [Peptide 63]” was tested, and the “Phage ELISA: positive” value was “positive”.
CTANVYFGTYC [Peptide 29] was tested, and the “Phage ELISA: positive” value was “positive”.
For “CSEPWSTSNC (LOS peptide mimotope sequence) [Peptide 142]”, the “Phage ELISA: positive” value was “positive”.
With “SPADCDYTTLCAKPT (LOS peptide mimotope sequence) [Peptide 147]” the “Phage ELISA: positive” value was “positive”.
For “SQWRSAAPT (LOS peptide mimotope sequence) [Peptide 53]”, the “Phage ELISA: positive” value was “positive”.
For “CPPPWSTHDC (LOS peptide mimotope sequence) [Peptide 141]”, the “Phage ELISA: positive” value was “positive”.
For “PGWYDAHPT (LOS peptide mimotope sequence) [Peptide 86]”, the “Phage ELISA: positive” value was “positive”.
For “CRFTYDPPFMC (LOS peptide mimotope sequence) [Peptide 51]”, the “Phage ELISA: positive” value was “positive”.

These sequences were tested on mAb H44/58 (assay: SPOT peptide immunoblot, mAb H44/58). Details: Membrane 1 (linear peptide).
Type: binding, mouse
From the text: Another experiment for determining the best peptide candidates for immunisation trials is whether chemically synthesized peptides are recognized by at least one anti-MenB LOS mAb (and preferably not by irrelevant mAbs). This can be assessed on SPOT synthesized peptides (peptides synthesized directly on a cellulose membrane). This membrane can be tested with different mAbs by repetitive immunoblottings and chemiluminescent detection. Peptides may be synthesised with 3 residues originating from the pVIII protein sequence on each end of the peptide. Indeed, the primary structure of the peptides expressed in fusion with pVIII on the surface of the bacteriophage is as follows (x for any residue in the library):
For example linear peptides comprising peptide No. 61 from Table 2 (GEFPRPHFGAPPDPA) and peptide No. 83 (GEFAERSLWYYPDPA) were synthesised on one membrane, and cyclised peptides comprising peptide No. 50 from Table 2 (GEFCSSYSYVHDSCGDP), peptide 14 (GEFCSHAPPYDRVCGDP) and peptide 25 (GEFCRAPPYDTIMCGDP) were synthesised on another.
The protocol used to probe these membranes with mAbs was the one provided by Genosys, with some modifications, especially for the regeneration of membranes with cyclised peptides. […]
With AERSLWYYP [Peptide 83] the “SPOT recognition by mAb 58 (H44/58)” value was “recognized”.

Same assay, conditions: Membrane 2 (cyclic peptides), synthesised with pVIII flanking residues
CRAPPYDTIMC [Peptide 25] was tested, and the “SPOT recognition by mAb 58 (H44/58)” value was “positive”.

These sequences were tested on mAb H44/58 (assay: Phage-ELISA with mAb H44/58). Details: peptide-on-phage.
Type: binding, mouse
Description: as §1
CSHAPPYDRVC [Peptide 14] was tested, and the “Phage-ELISA result with mAb H44/58” value was “positive”.
In the case of CRAPPYDTIMC [Peptide 25], the “Phage-ELISA result with mAb H44/58” value is reported as “positive”.
